The source made the active and inactive calls. The calls are words filed in the database; no cut-off is given here.

Assay [1] deals with T1, Chitotriosidase-1 (Homo sapiens, UniProt Q13231). Nature of the assay: Inhibition of human CHIT1 catalytic domain overexpressed in Pichia pastoris at 10 uM using 4MU-(GlcNAc)2 as substrate after 30 mins by fluorescence based microplate reader analysis.
Target sequence in this assay (Q13231 22-466 limits assumed): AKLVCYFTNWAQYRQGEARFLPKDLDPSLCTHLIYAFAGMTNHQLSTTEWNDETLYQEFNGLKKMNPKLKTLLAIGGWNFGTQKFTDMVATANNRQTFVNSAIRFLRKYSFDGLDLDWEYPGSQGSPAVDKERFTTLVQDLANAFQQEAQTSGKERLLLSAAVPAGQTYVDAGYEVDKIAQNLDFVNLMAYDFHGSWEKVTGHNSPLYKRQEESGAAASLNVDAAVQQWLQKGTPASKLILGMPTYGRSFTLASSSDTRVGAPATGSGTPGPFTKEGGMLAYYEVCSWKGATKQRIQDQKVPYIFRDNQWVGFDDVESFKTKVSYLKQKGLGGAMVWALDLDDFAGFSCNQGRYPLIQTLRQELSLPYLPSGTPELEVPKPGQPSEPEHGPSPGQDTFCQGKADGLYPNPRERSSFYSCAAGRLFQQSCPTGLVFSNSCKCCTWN
In assay [2] the target is T2, Chitinase B (Serratia marcescens) (UniProt P11797).
T2 sequence (whole entry): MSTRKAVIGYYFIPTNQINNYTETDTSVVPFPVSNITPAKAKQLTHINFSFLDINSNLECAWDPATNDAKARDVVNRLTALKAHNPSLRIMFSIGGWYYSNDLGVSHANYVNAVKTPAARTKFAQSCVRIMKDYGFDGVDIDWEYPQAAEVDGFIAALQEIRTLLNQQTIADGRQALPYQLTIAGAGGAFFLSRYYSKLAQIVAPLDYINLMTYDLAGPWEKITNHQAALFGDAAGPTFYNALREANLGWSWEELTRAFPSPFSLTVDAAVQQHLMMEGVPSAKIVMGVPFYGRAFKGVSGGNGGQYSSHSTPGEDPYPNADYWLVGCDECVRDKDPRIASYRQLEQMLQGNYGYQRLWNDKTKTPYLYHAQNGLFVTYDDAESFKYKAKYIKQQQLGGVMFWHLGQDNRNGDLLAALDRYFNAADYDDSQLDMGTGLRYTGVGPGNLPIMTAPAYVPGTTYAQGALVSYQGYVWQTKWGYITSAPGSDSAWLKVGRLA
Nature of the assay: Inhibition of Serratia marcescens chitinase b catalytic domain overexpressed in Escherichia coli BL21(DE3) cells at 1 uM using 4MU-(GlcNAc)2 as substrate after 30 mins by fluorescence based microplate reader analysis.

The target in assay [3] is T3, Acidic mammalian chitinase (Homo sapiens, UniProt Q9BZP6). Nature of the assay: Inhibition of human acidic mammalian chitinase catalytic domain overexpressed in Pichia pastoris at 10 uM using 4MU-(GlcNAc)2 as substrate after 30 mins by fluorescence based microplate reader analysis.
Target sequence in this assay (Q9BZP6 22-476 limits assumed): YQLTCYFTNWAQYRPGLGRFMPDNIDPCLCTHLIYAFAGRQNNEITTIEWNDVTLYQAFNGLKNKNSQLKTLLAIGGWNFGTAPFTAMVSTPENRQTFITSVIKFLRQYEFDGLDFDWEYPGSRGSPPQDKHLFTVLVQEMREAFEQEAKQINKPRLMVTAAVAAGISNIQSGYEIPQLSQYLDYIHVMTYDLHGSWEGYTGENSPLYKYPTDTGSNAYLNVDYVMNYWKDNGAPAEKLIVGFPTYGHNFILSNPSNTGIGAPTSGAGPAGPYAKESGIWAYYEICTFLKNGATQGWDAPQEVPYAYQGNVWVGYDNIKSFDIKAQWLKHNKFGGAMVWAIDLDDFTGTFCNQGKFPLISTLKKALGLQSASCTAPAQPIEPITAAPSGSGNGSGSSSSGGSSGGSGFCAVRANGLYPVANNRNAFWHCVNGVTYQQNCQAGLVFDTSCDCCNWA
In assay [4] the target is Chitinase (Ostrinia furnacalis) (UniProt Q4AE59). Nature of the assay: Inhibition of Ostrinia furnacalis chitinase h catalytic domain overexpressed in Pichia pastoris at 1 uM using 4MU-(GlcNAc)2 as substrate after 30 mins by fluorescence based microplate reader analysis.
Chitinase (Ostrinia furnacalis), sequence (Q4AE59 as listed by the source): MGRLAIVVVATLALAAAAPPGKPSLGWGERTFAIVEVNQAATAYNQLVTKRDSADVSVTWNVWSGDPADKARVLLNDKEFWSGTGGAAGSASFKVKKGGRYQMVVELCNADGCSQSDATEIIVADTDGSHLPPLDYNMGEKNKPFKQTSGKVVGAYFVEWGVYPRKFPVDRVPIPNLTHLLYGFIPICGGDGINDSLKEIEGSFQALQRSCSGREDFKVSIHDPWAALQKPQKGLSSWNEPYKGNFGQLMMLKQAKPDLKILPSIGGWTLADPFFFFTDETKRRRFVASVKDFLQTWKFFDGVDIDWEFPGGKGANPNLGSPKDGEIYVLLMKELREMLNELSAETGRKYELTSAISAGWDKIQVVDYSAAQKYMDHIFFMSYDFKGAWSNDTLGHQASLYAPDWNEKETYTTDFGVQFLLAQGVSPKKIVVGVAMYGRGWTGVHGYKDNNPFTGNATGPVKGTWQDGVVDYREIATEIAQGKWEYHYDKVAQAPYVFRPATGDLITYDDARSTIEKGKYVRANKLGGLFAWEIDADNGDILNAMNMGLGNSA
Assay [5] has as its target T1, Chitotriosidase-1. Nature of the assay: Inhibition of human CHIT1 catalytic domain overexpressed in Pichia pastoris at 50 uM using 4MU-(GlcNAc)2 as substrate after 30 mins by fluorescence based microplate reader analysis relative to control.
Target sequence in this assay (Q13231 22-466 limits assumed): as the sequence (Q13231 22-466 limits assumed) above
Assay [6] has as its target Chitotriosidase-1 (Mus musculus, UniProt Q9D7Q1). Nature of the assay: Inhibition of mouse CHIT1 catalytic domain overexpressed in Pichia pastoris using 4MU-(GlcNAc)2 as substrate after 30 mins by fluorescence based microplate reader analysis.
In assay [7] the target is Acidic mammalian chitinase (Mus musculus, UniProt Q91XA9). Nature of the assay: Inhibition of mouse acidic mammalian chitinase catalytic domain overexpressed in Pichia pastoris using 4MU-(GlcNAc)2 as substrate after 30 mins by fluorescence based microplate reader analysis.
Acidic mammalian chitinase (Mus musculus, UniProt Q91XA9), sequence (Q91XA9 whole entry, the tested form may be a part): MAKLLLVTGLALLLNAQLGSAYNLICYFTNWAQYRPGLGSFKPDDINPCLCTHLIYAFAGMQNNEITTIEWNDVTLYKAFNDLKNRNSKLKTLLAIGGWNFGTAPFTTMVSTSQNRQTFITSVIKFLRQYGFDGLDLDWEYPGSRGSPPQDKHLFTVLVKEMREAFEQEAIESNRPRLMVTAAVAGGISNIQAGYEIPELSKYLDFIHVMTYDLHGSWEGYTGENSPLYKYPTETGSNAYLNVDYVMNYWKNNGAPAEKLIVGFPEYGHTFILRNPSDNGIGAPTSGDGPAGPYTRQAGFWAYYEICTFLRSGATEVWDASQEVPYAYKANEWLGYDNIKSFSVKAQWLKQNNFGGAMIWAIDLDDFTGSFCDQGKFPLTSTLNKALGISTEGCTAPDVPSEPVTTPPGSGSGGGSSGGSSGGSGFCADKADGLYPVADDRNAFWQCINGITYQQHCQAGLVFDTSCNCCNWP
Assay [8] addresses T1, Chitotriosidase-1. Nature of the assay: Binding affinity to human CHIT1 catalytic domain overexpressed in Pichia pastoris assessed by isothermal titration calorimetry. In general terms: Isothermal titration calorimetry measures the heat released or taken up as one component is titrated into another.
Target sequence in this assay (Q13231 whole entry, the tested form may be a part): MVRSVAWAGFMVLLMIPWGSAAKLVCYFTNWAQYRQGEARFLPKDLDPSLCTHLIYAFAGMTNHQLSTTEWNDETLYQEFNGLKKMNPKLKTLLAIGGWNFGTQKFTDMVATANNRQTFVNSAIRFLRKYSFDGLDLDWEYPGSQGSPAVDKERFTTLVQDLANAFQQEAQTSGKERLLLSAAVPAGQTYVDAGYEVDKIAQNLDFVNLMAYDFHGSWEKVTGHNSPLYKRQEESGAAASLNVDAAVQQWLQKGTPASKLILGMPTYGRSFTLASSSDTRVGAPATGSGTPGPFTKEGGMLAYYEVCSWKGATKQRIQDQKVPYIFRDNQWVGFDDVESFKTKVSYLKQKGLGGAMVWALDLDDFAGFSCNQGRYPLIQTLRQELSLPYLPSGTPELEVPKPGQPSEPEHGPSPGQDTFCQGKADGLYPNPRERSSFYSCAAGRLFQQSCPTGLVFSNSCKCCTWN
For assay [9], the target named is T1, Chitotriosidase-1. Nature of the assay: Binding affinity to human CHIT1 catalytic domain overexpressed in Pichia pastoris assessed as association constant by isothermal titration calorimetry.
Target sequence in this assay (Q13231 22-466 limits assumed): as the sequence (Q13231 22-466 limits assumed) above
The target in assay [10] is T4, Chitinase (Ostrinia furnacalis, UniProt Q4AE59). Nature of the assay: Inhibition of Ostrinia furnacalis chitinase h catalytic domain overexpressed in Pichia pastoris using 4MU-(GlcNAc)2 as substrate after 30 mins by fluorescence based microplate reader analysis.
T4 sequence (Q4AE59 whole entry, the tested form may be a part): as the sequence (Q4AE59 as listed by the source) above
Assay [11] concerns the target T5, Chitinase B (Serratia marcescens, UniProt P11797).
T5 sequence (P11797 whole entry): T2 sequence (whole entry)
Nature of the assay: Inhibition of Serratia marcescens chitinase b catalytic domain overexpressed in Escherichia coli BL21(DE3) cells using 4MU-(GlcNAc)2 as substrate after 30 mins by fluorescence based microplate reader analysis.

In assay [12] the target is T4, Chitinase. Nature of the assay: Binding affinity to Ostrinia furnacalis chitinase h catalytic domain overexpressed in Pichia pastoris by isothermal titration calorimetry.
Assay [13] deals with T2, Chitinase B (Serratia marcescens). Nature of the assay: Binding affinity to Serratia marcescens chitinase b catalytic domain overexpressed in Escherichia coli BL21(DE3) cells assessed as association constant by isothermal titration calorimetry.
Assay [14] deals with T3, Acidic mammalian chitinase. Nature of the assay: Inhibition of human acidic mammalian chitinase catalytic domain overexpressed in Pichia pastoris using 4MU-(GlcNAc)2 as substrate after 30 mins by fluorescence based microplate reader analysis.
Target sequence in this assay (Q9BZP6 whole entry, the tested form may be a part): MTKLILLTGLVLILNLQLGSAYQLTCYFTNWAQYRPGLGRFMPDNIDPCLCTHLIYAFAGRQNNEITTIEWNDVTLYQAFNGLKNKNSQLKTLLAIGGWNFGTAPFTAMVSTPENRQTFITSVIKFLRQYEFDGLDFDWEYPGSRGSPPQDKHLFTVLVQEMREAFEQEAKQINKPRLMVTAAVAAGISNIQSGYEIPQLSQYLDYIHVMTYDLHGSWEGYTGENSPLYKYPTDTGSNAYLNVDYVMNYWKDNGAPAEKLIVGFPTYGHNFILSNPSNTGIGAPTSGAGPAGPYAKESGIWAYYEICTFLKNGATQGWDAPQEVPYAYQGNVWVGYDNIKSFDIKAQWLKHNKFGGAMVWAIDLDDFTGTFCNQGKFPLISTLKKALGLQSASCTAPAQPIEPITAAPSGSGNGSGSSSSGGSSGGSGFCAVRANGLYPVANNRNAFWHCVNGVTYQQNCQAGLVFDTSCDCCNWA
For assay [15], the target named is T5, Chitinase B. Nature of the assay: Binding affinity to Serratia marcescens chitinase b catalytic domain overexpressed in Escherichia coli BL21(DE3) cells by isothermal titration calorimetry.
The target of assay [16] is T1, Chitotriosidase-1. Nature of the assay: Inhibition of human CHIT1 catalytic domain overexpressed in Pichia pastoris using 4MU-(GlcNAc)2 as substrate after 30 mins by fluorescence based microplate reader analysis.
Target sequence in this assay (Q13231 whole entry, the tested form may be a part): as the sequence (Q13231 whole entry, the tested form may be a part) above

Chitotriosidase-1 (Mus musculus, UniProt Q9D7Q1), sequence (Q9D7Q1 whole entry, the tested form may be a part): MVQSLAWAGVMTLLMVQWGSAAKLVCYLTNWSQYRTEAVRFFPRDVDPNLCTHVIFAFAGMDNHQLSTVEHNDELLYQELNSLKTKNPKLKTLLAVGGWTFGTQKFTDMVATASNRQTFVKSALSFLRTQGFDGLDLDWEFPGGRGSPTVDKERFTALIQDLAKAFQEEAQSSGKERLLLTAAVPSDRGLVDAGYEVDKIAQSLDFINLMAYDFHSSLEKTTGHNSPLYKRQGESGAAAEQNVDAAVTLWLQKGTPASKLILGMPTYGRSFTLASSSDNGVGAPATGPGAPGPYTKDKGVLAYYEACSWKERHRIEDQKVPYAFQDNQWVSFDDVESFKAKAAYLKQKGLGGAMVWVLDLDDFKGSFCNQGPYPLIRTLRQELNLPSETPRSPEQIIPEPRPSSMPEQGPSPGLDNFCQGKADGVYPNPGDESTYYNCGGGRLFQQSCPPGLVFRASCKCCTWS

In the case of `Cc1cccn2c(=O)c3cc(C#N)c(=N)n(Cc4cccnc4)c3nc12`, the inhibition result (on Chitotriosidase-1 [1]; in assay [2]; in assay [3]; in [4]) was “inactive” in each case.
`COC(=O)c1cc2c(=O)n3ccccc3nc2n(Cc2cccnc2)c1=N`: the inhibition result (on Chitotriosidase-1 [1]; in [2]; in assay [3]; in assay [4]) was “inactive” in each case.
With `CNC(=O)c1cc2c(=O)n3cc(C)ccc3nc2n(Cc2cccnc2)c1=N`, the inhibition entry (at Chitotriosidase-1 [1]; in assay [2]; in assay [3]; in [4]) was “inactive” in each case.
On to `N=c1c(C(=O)NCc2cccnc2)cc2c(=O)n3ccccc3nc2n1Cc1ccccc1`, for which the inhibition result (on Chitotriosidase-1 [1]; in assay [2]; in assay [3]; in assay [4]) was “Active” throughout.
As to `COCCCn1c(=N)c(C(=O)N[C@@H](C)c2ccccc2)cc2c(=O)n3ccccc3nc21`, the inhibition result (on Chitotriosidase-1 [1]; in [2]; in [3]; in [4]) was “Active” throughout.
For `COCCn1c(=N)c(C(=O)NCCN2CCCCC2)cc2c(=O)n3ccccc3nc21`, the inhibition result (on Chitotriosidase-1 [1]; in assay [2]; in assay [3]; in assay [4]) was “inactive” in each case.
Turning to `Cc1cccn2c(=O)c3cc(C(=O)NCc4cccnc4)c(=N)n(Cc4ccco4)c3nc12`, the inhibition result (on Chitotriosidase-1 [1]; in assay [2]; in assay [3]; in assay [4]) was “Active” each time.
`COCCCn1c(=N)c(C(=O)NCc2ccc(F)cc2)cc2c(=O)n3ccccc3nc21`: the inhibition entry (on Chitotriosidase-1 [1]; in assay [2]; in assay [3]; in [4]) was “inactive” each time.
`Cc1cccn2c(=O)c3cc(C#N)c(=N)n(Cc4ccccc4)c3nc12`: the inhibition result (on Chitotriosidase-1 [1]; in [2]; in assay [3]; in assay [4]) was “inactive” each time.
Consider `COCCCn1c(=N)c(-c2nc3ccccc3s2)cc2c(=O)n3ccccc3nc21`, for which the inhibition entry (on Chitotriosidase-1 [1]; in assay [2]; in assay [3]; in [4]) was “inactive” each time.
With `COCCCn1c(=N)c(C(=O)NCc2ccc(C)cc2)cc2c(=O)n3ccccc3nc21`, the inhibition entry (at Chitotriosidase-1 [1]; in [2]; in [3]; in [4]) was “inactive” in each case.
As for `COCCCn1c(=N)c(C(=O)NCc2ccc(OC)cc2)cc2c(=O)n3ccccc3nc21`, the inhibition entry (on Chitotriosidase-1 [1]; in [2]; in [3]; in assay [4]) was “inactive” in each case.
As to `CCOC(=O)c1cc2c(=O)n3ccccc3nc2n(Cc2ccco2)c1=N`, the inhibition entry (at Chitotriosidase-1 [1]; in assay [2]; in assay [3]; in [4]) was “inactive” in each case.
As to `Cc1ccc2nc3c(cc(C(=O)N[C@H](C)c4ccccc4)c(=N)n3C[C@H]3CCCO3)c(=O)n2c1`, the inhibition entry (at Chitotriosidase-1 [1]; in assay [2]; in assay [3]; in assay [4]) was “Active” each time.
As to `N=c1c(C(=O)NCC2CCCO2)cc2c(=O)n3ccccc3nc2n1Cc1ccco1` (stereo not given), the inhibition (as a rule, the drop in the measured response relative to a control, in per cent) on Chitotriosidase-1 [5] came out at 100%.
For `C=CCn1c(=N)c(C(=O)N2CCN(C)CC2)cc2c(=O)n3cccc(C)c3nc21`, the inhibition entry (on Chitotriosidase-1 [1]; in assay [2]; in assay [3]; in assay [4]) was “inactive” throughout.
As for `Cc1cccn2c(=O)c3cc(C(=O)NCc4cccnc4)c(=N)n(Cc4ccc(F)cc4)c3nc12`, the inhibition result (on Chitotriosidase-1 [1]; in assay [2]; in assay [3]; in assay [4]) was “Active” throughout.
As to `C[C@@H](NC(=O)c1cc2c(=O)n3ccccc3nc2n(C[C@H]2CCCO2)c1=N)c1ccccc1`, the inhibition entry (at Chitotriosidase-1 [1]; in [2]; in assay [3]; in assay [4]) was “Active” each time.
Take `COCCCn1c(=N)c(C(=O)NCc2cccnc2)cc2c(=O)n3ccccc3nc21`: the inhibition result (at Chitotriosidase-1 [1]; in [2]; in assay [3]; in [4]) was “inactive” throughout.
For the compound `Cc1ccc2nc3c(cc(C(=O)NCc4cccnc4)c(=N)n3C[C@H]3CCCO3)c(=O)n2c1`, the inhibition entry (at Chitotriosidase-1 [1]; in [2]; in assay [3]; in assay [4]) was “Active” each time.
As for `Cc1cccn2c(=O)c3cc(C(=O)N[C@H](C)c4ccccc4)c(=N)n(C[C@H]4CCCO4)c3nc12`, the inhibition entry (at Chitotriosidase-1 [1]; in [2]; in assay [3]; in [4]) was “Active” in each case.
`N=c1c(C(=O)NC2CCCCC2)cc2c(=O)n3ccccc3nc2n1Cc1cccnc1`: the inhibition entry (on Chitotriosidase-1 [1]; in [2]; in assay [3]; in [4]) was “inactive” each time.
Turning to `Cc1cccn2c(=O)c3cc(C(=O)NCc4cccnc4)c(=N)n(CC4CCCO4)c3nc12` (stereo not given), the Ki (as a rule, a dissociation constant, usually derived from enzyme kinetics or from competition with a known ligand) on Chitotriosidase-1 [6] came out at 1940 nM; in assay [7], 1380 nM; on Chitinase [10], 9 nM; at Chitinase B [11], 58 nM; in assay [14], 9720 nM; on Chitotriosidase-1 [16], 1120 nM. Further, the Kd (in general, the constant that tells how readily two partners part at equilibrium) stood at 1120 nM on Chitotriosidase-1 [8], 85 nM at Chitinase [12] and 190 nM on Chitinase B [15]. For the same compound, the Ka on Chitotriosidase-1 [9] turned out to be 895000 M⁻¹; in [13] it was 5.1e+06 M⁻¹. For the same compound, the inhibition entry (at Chitotriosidase-1 [1]; in [2]; in [3]; in assay [4]) was “Active” in each case.

These data come from ChEMBL document CHEMBL4354842, “A Series of Compounds Bearing a Dipyrido-Pyrimidine Scaffold Acting as Novel Human and Insect Pest Chitinase Inhibitors” (J Med Chem, 2020).
